Data taken from publication PMC6084781 (Cancer letters, 2018).
pEC50: −log10 of the molar value.

Key:
ABCB1 = ABCB1 (Homo sapiens, UniProt P08183); test: vanadate-sensitive ATPase stimulation in membrane vesicles; assay type: biochemical
ABCG2 = target: T1, ABCG2 (Homo sapiens, UniProt Q9UNQ0); test: as above; assay type: biochemical
T1 sequence (Q9UNQ0 1-655): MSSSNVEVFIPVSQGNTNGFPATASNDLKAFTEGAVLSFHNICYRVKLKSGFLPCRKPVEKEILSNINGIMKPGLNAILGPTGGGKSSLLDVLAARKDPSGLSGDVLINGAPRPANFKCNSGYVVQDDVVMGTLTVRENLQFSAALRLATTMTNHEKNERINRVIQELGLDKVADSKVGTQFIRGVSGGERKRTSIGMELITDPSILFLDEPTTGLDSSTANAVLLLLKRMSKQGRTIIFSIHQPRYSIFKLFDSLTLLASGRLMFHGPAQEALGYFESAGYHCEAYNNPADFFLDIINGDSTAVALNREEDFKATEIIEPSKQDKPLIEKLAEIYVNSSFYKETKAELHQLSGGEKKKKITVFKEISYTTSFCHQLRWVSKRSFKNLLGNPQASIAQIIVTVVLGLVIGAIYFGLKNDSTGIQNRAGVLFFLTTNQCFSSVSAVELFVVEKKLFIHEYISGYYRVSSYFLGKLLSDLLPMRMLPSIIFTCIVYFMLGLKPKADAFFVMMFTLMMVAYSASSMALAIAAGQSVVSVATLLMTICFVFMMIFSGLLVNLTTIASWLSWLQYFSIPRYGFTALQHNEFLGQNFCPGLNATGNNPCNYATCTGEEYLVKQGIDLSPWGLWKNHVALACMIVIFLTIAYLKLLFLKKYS

Chain of ABCB1 (P08183 whole entry): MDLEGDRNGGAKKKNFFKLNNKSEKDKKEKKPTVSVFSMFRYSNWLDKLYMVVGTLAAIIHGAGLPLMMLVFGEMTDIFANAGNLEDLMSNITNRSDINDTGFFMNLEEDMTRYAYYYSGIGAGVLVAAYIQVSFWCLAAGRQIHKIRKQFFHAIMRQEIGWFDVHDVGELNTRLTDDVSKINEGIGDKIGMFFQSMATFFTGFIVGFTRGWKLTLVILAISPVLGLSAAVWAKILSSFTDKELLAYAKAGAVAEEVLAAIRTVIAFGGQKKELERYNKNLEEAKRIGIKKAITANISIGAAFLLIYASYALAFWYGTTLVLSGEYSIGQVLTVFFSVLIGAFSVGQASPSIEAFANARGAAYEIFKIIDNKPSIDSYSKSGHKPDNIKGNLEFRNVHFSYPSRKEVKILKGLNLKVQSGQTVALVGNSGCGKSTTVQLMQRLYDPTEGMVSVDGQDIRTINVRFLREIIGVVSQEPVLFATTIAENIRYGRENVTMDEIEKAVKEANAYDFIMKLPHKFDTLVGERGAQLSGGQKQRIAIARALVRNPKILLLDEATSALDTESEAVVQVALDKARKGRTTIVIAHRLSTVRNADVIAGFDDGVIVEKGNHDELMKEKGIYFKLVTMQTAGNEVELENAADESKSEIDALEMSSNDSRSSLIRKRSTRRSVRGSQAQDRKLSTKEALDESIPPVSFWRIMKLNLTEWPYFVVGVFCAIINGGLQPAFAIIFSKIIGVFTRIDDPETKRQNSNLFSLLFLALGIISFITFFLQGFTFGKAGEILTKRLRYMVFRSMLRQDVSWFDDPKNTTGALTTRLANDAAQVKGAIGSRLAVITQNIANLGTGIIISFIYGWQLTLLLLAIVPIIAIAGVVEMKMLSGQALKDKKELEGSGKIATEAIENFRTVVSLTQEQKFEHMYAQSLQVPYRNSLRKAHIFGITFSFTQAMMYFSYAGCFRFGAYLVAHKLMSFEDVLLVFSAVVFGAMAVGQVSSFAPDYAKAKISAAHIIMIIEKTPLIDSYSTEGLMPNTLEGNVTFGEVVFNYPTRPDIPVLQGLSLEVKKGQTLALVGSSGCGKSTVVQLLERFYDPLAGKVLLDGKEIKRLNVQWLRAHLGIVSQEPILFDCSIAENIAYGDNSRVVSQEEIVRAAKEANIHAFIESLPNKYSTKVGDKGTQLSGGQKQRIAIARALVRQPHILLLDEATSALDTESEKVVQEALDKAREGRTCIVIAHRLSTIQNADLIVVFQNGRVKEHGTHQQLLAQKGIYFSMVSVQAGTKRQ

COc1cc2c(cc1OC)CN(C(=O)/C=C/c1c(-c3ccccc3)n(C)c3ncccc13)CC2 [SIS3]
pEC50 (ABCB1): ~6.80 | pEC50 (ABCG2): ~7.22
